Test results from PubChem BioAssay AID540340 (Sanford-Burnham Center for Chemical Genomics, 2011).

Each molecule was assayed against C-C chemokine receptor type 6 (Homo sapiens) (UniProt P51684) (assay: CXCR5 receptor antagonists, SAR follow-up, selectivity assay for CCR6 antagonist project, cell-based, beta-arrestin, luminescence, CHO-K1 PathHunter (AID 540340)). Settings: CCR6 beta-arrestin antagonism, AID540334.
C-C chemokine receptor type 6 (Homo sapiens), sequence (P51684 whole entry, looked up): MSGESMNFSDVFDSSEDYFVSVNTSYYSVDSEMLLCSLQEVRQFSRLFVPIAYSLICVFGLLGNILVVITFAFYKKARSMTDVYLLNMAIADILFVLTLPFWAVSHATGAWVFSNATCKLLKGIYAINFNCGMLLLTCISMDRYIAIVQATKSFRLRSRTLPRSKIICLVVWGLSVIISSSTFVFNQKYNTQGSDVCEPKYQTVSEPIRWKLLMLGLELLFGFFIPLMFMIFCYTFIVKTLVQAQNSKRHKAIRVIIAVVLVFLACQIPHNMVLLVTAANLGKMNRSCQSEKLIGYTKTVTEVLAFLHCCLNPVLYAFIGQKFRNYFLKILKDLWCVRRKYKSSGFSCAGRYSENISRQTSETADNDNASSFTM

Row | Structure (SMILES) | IC50 [µM]
1 | O=C1C2C3C=CC(CO)(O3)C2C(=O)N1c1ccccc1-c1ccccc1 (stereo unspecified) | > 66.6
2 | C/C=C(\C)C(=O)OC1[C@H](OC(C)=O)C2(CO)C(CC1(C)C)C1=CCC3C4(C)CCC(O[C@@H]5O[C@H](C(=O)O)[C@@H](O[C@@H]6O[C@H](CO)[C@@H](O)[C@H](O)[C@H]6O)[C@H](O)[C@H]5O[C@H]5O[C@H](CO)[C@@H](O)[C@H](O)[C@H]5O)[C@](C)(CO)C4CCC3(C)[C@]1(C)C[C@H]2O (stereo partly specified) | 7.82
3 | Cc1cccc2c1N(CCCOc1ccc(C(C)(C)C)cc1)C(=O)C2=O | > 66.6
4 | CCCCCCCCCCCCC/C=C/[C@@H](O)[C@@H](N)CO | 20.9
5 | CN1CCc2nc(SCc3ccc(Cl)cc3)c(C#N)c(-c3cccs3)c2C1 | > 66.6
6 | Cn1c(O)c(C2=NNC(c3ccc(Cl)cc3)C2)c(=O)n(C)c1=O (stereo unspecified) | 5.84
